These results are taken from patent US9833497B2, “Human originated EGF domain proteins and use of the same” (CHENGDU SOURCEBIO LIMITED-LIABILITY COMPANY, priority 2013, dated 2017).

Format in all cases: cell-based
The subject of one experiment is Enterobacter cloacae. Put plainly: MIC against Gram-negative bacteria: Enterobacter cloacae. Summed up: (§1)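 MIC = lowest concentration of recombinant protein showing no growth. Test proteins: purified human-derived EGF domain proteins, two-fold dilution series, three wells per concentration; inoculum 5×10^5 CFU/mL in LB; incubation 37° C with shaking at 175 rpm.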
Another experiment concerns E. coli BL21. Briefly: MIC against Gram-negative bacteria: E. coli BL21. The procedure, abridged: as §1
A further experiment concerns Klebsiella pneumonia. Put plainly: MIC against Gram-negative bacteria: Klebsiella pneumonia. The procedure, abridged: as §1
In the next experiment the test system is Citrobacter diversus. Briefly: MIC against Gram-negative bacteria: Citrobacter diversus. The procedure, abridged:
as §1

Another experiment relates to Proteus mirabilis. Briefly: MIC against Gram-negative bacteria: Proteus mirabilis. The procedure, abridged: as §1
The test system of a further experiment is Pseudomonas aeruginosa. Put plainly: MIC against Gram-negative bacteria: Pseudomonas aeruginosa. The procedure, abridged: as §1
The next experiment has as its system E. coli DH5α. Briefly: Antibacterial activity: MIC and growth curve against E. coli DH5α in 96-well plate. Particulars: minimal inhibitory concentration against E. coli DH5α; 96-well plate, 5×10^5 CFU/mL, 37° C., judged after 8 h. Summed up:
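MIC taken as lowest protein level with no bacterial growth, tracked by A600 every 30 min during 37 °C, 175 rpm culture. Two-fold protein series 50-12.5 μg/mL final, triplicate wells, against 5×10^5 CFU/mL of LB-washed mid-log cells.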

For another experiment, the system named is Serratia marcescens. Put plainly: MIC against Gram-negative bacteria: Serratia marcescens. The procedure, abridged: as §1
The subject of a further experiment is Proteus vulgaris. Put plainly: MIC against Gram-negative bacteria: Proteus vulgaris. Summed up:
as §1

The subject of a further experiment is Moraxella catarrhalis. Put plainly: MIC against Gram-negative bacteria: Moraxella catarrhalis. Summed up: as §1
The subject of the next experiment is Aeromonas hydrophila. Briefly: MIC against Gram-negative bacteria: Aeromonas hydrophila. The procedure, abridged: as §1
Where [1] appears, read: Enterobacter cloacae, 96-well plate, 5×10^5 CFU/mL, 37° C., 10 h.
Setting [2] is: E. coli BL21, 96-well plate, 5×10^5 CFU/mL, 37° C., 10 h.
[3] abbreviates: Klebsiella pneumonia, 96-well plate, 5×10^5 CFU/mL, 37° C., 10 h.
[4] abbreviates: Citrobacter diversus, 96-well plate, 5×10^5 CFU/mL, 37° C., 10 h.
Where [5] appears, read: Proteus mirabilis, 96-well plate, 5×10^5 CFU/mL, 37° C., 10 h.
Setting [6] is: Pseudomonas aeruginosa, 96-well plate, 5×10^5 CFU/mL, 37° C., 10 h.
The mark [7] stands for this setting: Serratia marcescens, 96-well plate, 5×10^5 CFU/mL, 37° C., 10 h.
Where [8] appears, read: Proteus vulgaris, 96-well plate, 5×10^5 CFU/mL, 37° C., 10 h.
Setting [9] is: Moraxella catarrhalis, 96-well plate, 5×10^5 CFU/mL, 37° C., 10 h.
Where [10] appears, read: Aeromonas hydrophila, 96-well plate, 5×10^5 CFU/mL, 37° C., 10 h.
The mark [11] stands for this setting: 96-well plate, 5×10^5 CFU/mL, 37° C., 10 h.

What is called MIC is the lowest concentration that inhibits growth of the organism. Read a low MIC as a more susceptible organism. For the substance “PRT1223 (LEGACTRSPCQHGGTCMDYWSWQQCHCKEGLTGKYCE; listed as Homo sapiens)”, the “MIC against E. cloacae” value in the experiment with Enterobacter cloacae (setting [1]) amounted to 25 µg/mL. Moreover, the “MIC against E. coli BL21” value in the experiment on E. coli BL21 (setting [2]) came to 25 µg/mL. In addition, the “MIC against K. pneumonia” value against Klebsiella pneumonia (setting [3]) is 50 µg/mL. In addition, the “MIC against C. diversus” value with Citrobacter diversus (setting [4]) amounted to 25 µg/mL. For the same substance, the “MIC against P. mirabilis” value against Proteus mirabilis (setting [5]) was 12.5 µg/mL. The “MIC against P. aeruginosa” value in the experiment on Pseudomonas aeruginosa (setting [6]) worked out at 12.5 µg/mL. The substance further came in with an MIC in the experiment with E. coli DH5α of 50 µg/mL. In addition, in the experiment on Serratia marcescens (setting [7]), the “MIC against S. marcescens” value turned out to be 12.5 µg/mL. The “MIC against P. vulgaris” value in the experiment on Proteus vulgaris (setting [8]) stood at 50 µg/mL. Moreover, the “MIC against M. catarrhalis” value in the experiment with Moraxella catarrhalis (setting [9]) was 50 µg/mL. Further, the “MIC against A. hydrophila” value in the experiment on Aeromonas hydrophila (setting [10]) is 100 µg/mL.
As for “PRT928 (NIDNCDPDPCHHGQCQDGIDSYTCICNPGYMGAICS; listed as Homo sapiens)”, the MIC was 25 µg/mL against Enterobacter cloacae (E. cloacae, 10 h cultivation at 37° C.); 12.5 µg/mL against E. coli BL21 (E. coli BL21, 10 h cultivation at 37° C.); 12.5 µg/mL in the experiment on Klebsiella pneumonia (K. pneumonia, 10 h cultivation at 37° C.); 25 µg/mL in the experiment on Citrobacter diversus (C. diversus, 10 h cultivation at 37° C.); 12.5 µg/mL in the experiment with Proteus mirabilis (P. mirabilis, 10 h cultivation at 37° C.); 25 µg/mL in the experiment with Pseudomonas aeruginosa (P. aeruginosa, 10 h cultivation at 37° C.). Further, the MIC in the experiment on E. coli DH5α is 25 µg/mL; with Serratia marcescens (S. marcescens, 10 h cultivation at 37° C.), 25 µg/mL; in the experiment on Proteus vulgaris (P. vulgaris, 10 h cultivation at 37° C.), 25 µg/mL; with Moraxella catarrhalis (M. catarrhalis, 10 h cultivation at 37° C.) it was 12.5 µg/mL; in the experiment on Aeromonas hydrophila (A. hydrophila, 10 h cultivation at 37° C.), 12.5 µg/mL.
Consider “PRT1212 (DIDECSGNPCLHGALCENTHGSYHCNCSHEYRGRHCE; listed as Homo sapiens)”, for which the “MIC against E. cloacae” value with Enterobacter cloacae (setting [1]) is 25 µg/mL. The “MIC against E. coli BL21” value against E. coli BL21 (setting [2]) worked out at 25 µg/mL. For the same substance, the “MIC against K. pneumonia” value with Klebsiella pneumonia (setting [3]) was 50 µg/mL. The “MIC against C. diversus” value against Citrobacter diversus (setting [4]) came to 12.5 µg/mL. Moreover, the “MIC against P. mirabilis” value in the experiment with Proteus mirabilis (setting [5]) is 50 µg/mL. The “MIC against P. aeruginosa” value against Pseudomonas aeruginosa (setting [6]) is 12.5 µg/mL. Also, the MIC against E. coli DH5α is 50 µg/mL. Further, the “MIC against S. marcescens” value against Serratia marcescens (setting [7]) came to 12.5 µg/mL. Further, in the experiment with Proteus vulgaris (setting [8]), the “MIC against P. vulgaris” value turned out to be 25 µg/mL. The “MIC against M. catarrhalis” value in the experiment with Moraxella catarrhalis (setting [9]) came out at 25 µg/mL. The “MIC against A. hydrophila” value in the experiment on Aeromonas hydrophila (setting [10]) came to 25 µg/mL.
Consider “PRT705 (LDDSCKLTCENGGRCILNEKGDLRCHCWPSYSGE; listed as Homo sapiens)”, for which the “MIC E. cloacae” value against Enterobacter cloacae (setting [11]) was 12.5 µg/mL. For the same substance, in the experiment on E. coli BL21 (setting [11]), the “MIC E. coli BL21” value is 50 µg/mL. Moreover, the “MIC K. pneumonia” value with Klebsiella pneumonia (setting [11]) came out at 50 µg/mL. Moreover, in the experiment on Citrobacter diversus (setting [11]), the “MIC C. diversus” value was 100 µg/mL. For the same substance, in the experiment with Proteus mirabilis (setting [11]), the “MIC P. mirabilis” value was 50 µg/mL. In addition, in the experiment with Pseudomonas aeruginosa (setting [11]), the “MIC P. aeruginosa” value was determined as 12.5 µg/mL. The MIC against E. coli DH5α was found to be 25 µg/mL. The “MIC S. marcescens” value against Serratia marcescens (setting [11]) is 50 µg/mL. In addition, in the experiment on Proteus vulgaris (setting [11]), the “MIC P. vulgaris” value turned out to be 12.5 µg/mL. In addition, the “MIC M. catarrhalis” value in the experiment on Moraxella catarrhalis (setting [11]) was 25 µg/mL. Moreover, the “MIC A. hydrophila” value against Aeromonas hydrophila (setting [11]) turned out to be 25 µg/mL.
Take “PRT133 (CRGHCSSYGKLCRNGGKCRERPIGFFCDCTFSAYTGPFCS; listed as Homo sapiens)”: in the experiment on Enterobacter cloacae (setting [1]), the “MIC (μg/mL) E. cloacae” value was 12.5 µg/mL. For the same substance, in the experiment with E. coli BL21 (setting [2]), the “MIC (μg/mL) E. coli BL21” value was 12.5 µg/mL. In addition, the “MIC (μg/mL) K. pneumonia” value in the experiment on Klebsiella pneumonia (setting [3]) was 25 µg/mL. Further, the “MIC (μg/mL) C. diversus” value against Citrobacter diversus (setting [4]) was determined as 50 µg/mL. Further, the “MIC (μg/mL) P. mirabilis” value in the experiment on Proteus mirabilis (setting [5]) turned out to be 12.5 µg/mL. In addition, in the experiment on Pseudomonas aeruginosa (setting [6]), the “MIC (μg/mL) P. aeruginosa” value is 50 µg/mL. In addition, the MIC with E. coli DH5α is 50 µg/mL. Also, the “MIC (μg/mL) S. marcescens” value with Serratia marcescens (setting [7]) was 12.5 µg/mL. In addition, in the experiment on Proteus vulgaris (setting [8]), the “MIC (μg/mL) P. vulgaris” value is 50 µg/mL. Moreover, the “MIC (μg/mL) M. catarrhalis” value with Moraxella catarrhalis (setting [9]) was 25 µg/mL. The “MIC (μg/mL) A. hydrophila” value against Aeromonas hydrophila (setting [10]) came out at 25 µg/mL.
